Experimental data as given in patent publication US5714594A, “cDNA cloning and expression of human liver estrogen sulfotransferase” (Mayo Foundation for Medical Education and Research, priority 1994, dated 1998).

Key:
human liver EST [1] = molecular target: T1, human liver EST (Homo sapiens, UniProt P49888); assay: ST activities in high-speed supernatants of COS-1 cells transfected with human liver EST cDNA; assay type: biochemical; set-up: expressed in transfected cells; host or cells: COS-1 cells, vector p91023(B); 100,000×g high-speed supernatant; conditions: substance is the sulfate acceptor substrate; transfected COS-1 cell preparation; 1 unit = 1 nmol sulfated product per hour at 37° C.
T1 sequence (P49888 1-294): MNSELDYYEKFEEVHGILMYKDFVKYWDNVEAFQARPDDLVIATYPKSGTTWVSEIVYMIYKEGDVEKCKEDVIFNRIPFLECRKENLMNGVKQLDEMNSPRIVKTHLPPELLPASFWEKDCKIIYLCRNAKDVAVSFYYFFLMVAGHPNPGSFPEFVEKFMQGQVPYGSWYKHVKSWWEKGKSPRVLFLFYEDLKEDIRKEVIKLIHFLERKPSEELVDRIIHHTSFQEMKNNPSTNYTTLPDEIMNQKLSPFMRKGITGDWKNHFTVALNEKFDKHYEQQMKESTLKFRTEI
Procedure: B. Expression in COS-1 cells. COS-1 cells were transfected with an EST cDNA expression construct in the eukaryotic expression vector p91023(B) as well as with vector alone using the DEAE-dextran method (H. Luthman et al., Nucleic Acids Res., 11, 1295-1308 (1983)). After harvesting, cell pellets were washed with 5 ml of phosphate buffered saline (PBS) and were homogenized for 30 seconds in 2 ml of 5 mM potassium phosphate buffer, pH 6.5. The homogenates were centrifuged at 15,000×g for 15 minutes at 4° C., and supernatants were centrifuged at 100,000×g for 1 hour at 4° C. Five μl aliquots of the 100,000×g "high-speed supernatants" (HSS) were assayed for ST enzymatic activities.
A. Sulfotransferase (ST) activities. The abilities of EST and DHEA ST to catalyze sulfation of various substrates were compared.
One unit of enzyme activity represented the formation of 1 nmol of sulfated product per hour of incubation at 37° C. All assays were performed in triplicate, and values reported are averages of those three determinations. Protein concentrations were measured by the method of Bradford (Anal. Biochem., 72, 248-254 (1976)) with bovine serum albumin as a standard.

human liver EST [2] = molecular target: T1, human liver EST; assay: DCNP inhibition of EST activity; assay type: biochemical; set-up: expressed in transfected cells; host or cells: COS-1 cells, vector p91023(B); 100,000×g high-speed supernatant; conditions: estrone as substrate; expressed in COS-1 cells; read-out: mean DCNP concentration at which EST activity was 50% inhibited
Procedure: (§1) D. DCNP inhibition of EST activity. […] EST activity (using its preferred substrate, estrone) and DHEA ST activity (using its preferred substrate, DHEA) were 50% inhibited at very similar mean DCNP concentrations, 28±2.9 and 40±2.3 μM, respectively (FIG. 4B).

human liver DHEA ST [3] = molecular target: T2, human liver DHEA ST (Homo sapiens, UniProt Q06520); assay: DCNP inhibition of DHEA ST activity; assay type: biochemical; set-up: expressed in transfected cells; host or cells: COS-1 cells; high-speed supernatant; conditions: DHEA as substrate; expressed in COS-1 cells; read-out: mean DCNP concentration at which DHEA ST activity was 50% inhibited
T2 sequence (Q06520 1-285): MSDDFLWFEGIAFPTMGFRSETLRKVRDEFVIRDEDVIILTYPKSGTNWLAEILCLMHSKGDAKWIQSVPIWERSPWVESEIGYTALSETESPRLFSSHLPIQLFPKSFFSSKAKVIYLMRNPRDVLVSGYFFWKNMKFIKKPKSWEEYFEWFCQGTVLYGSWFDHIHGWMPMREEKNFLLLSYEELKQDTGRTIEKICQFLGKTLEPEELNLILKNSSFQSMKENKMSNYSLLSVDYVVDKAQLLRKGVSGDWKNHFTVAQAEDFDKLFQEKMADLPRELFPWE
Procedure: as §1

human liver DHEA ST [4] = molecular target: T2, human liver DHEA ST; conditions: 75 mM NaCl; DHEA as substrate
Procedure: (§2) Biochemical characterization of human EST were carried out using aliquots of HSS from COS-1 cells transfected with human liver EST cDNA. Parallel experiments were performed with human liver DHEA ST cDNA (D. M. Otterness et at., Mol. Pharmacol., 41, 865-872 (1992)) that had also been transiently expressed in COS-1 cells.
(§3) E. Effect of NaCl concentration on EST activity.

human liver EST [5] = molecular target: T1, human liver EST; conditions: 150 mM NaCl; estrone as substrate; expressed in COS-1 cells
Procedure: as §2, §3

human EST = assay: Optimization of EST assay conditions and preferred substrate; assay type: biochemical; conditions: compared with estradiol-17β, ethinyl estradiol or DHEA
Source text: 1. Identification of the preferred substrate for human EST.
2. Optimization of EST assay conditions. Estrone was used as the substrate to determine optimal assay conditions and, subsequently, to characterize the properties of human EST.

human liver EST [6] = molecular target: T1, human liver EST; assay: Thermal inactivation of ST activity, EST; assay type: physicochemical; set-up: expressed in transfected cells; host or cells: COS-1 cells, vector p91023(B); 100,000×g high-speed supernatant; conditions: preincubated 15 minutes; estrone as substrate; HSS from COS-1 cells
Procedure: (§4) C. Thermal inactivation of ST activity. […] The temperatures at which 50% inactivation of EST (using its preferred substrate, estrone) and DHEA ST (using its preferred substrate, DHEA) activities occurred were 38.2±0.12 (mean±SEM) and 41.1±0.10° C., respectively (FIG. 4A). For the thermal inactivation experiment, HSS from COS-1 cells transfected with EST cDNA or DHEA ST cDNA was diluted 1:2 (v/v) with 5 mM potassium phosphate buffer, pH 6.5, preincubated at various temperatures for 15 minutes and was then placed on ice. An aliquot of the same preparation was kept on ice as a control. Each aliquot was then diluted further for assay of the ST activity being measured. Values for controls were determined at each temperature studied.

[7] = substrate: C[C@]12CC[C@H](O)CC1=CC[C@@H]1[C@@H]2CC[C@]2(C)C(=O)CC[C@@H]12; assay: Substrate kinetics (apparent Km) of ST activity, EST; assay type: biochemical, human; conditions: other: substance is the substrate; EST cDNA expressed in COS-1 cells
Procedure: (§5) B. Kinetics of ST activity. Substrate kinetic studies designed to estimate apparent Km values were performed. Since human liver EST and DHEA ST can both catalyze the sulfation of steroids, these studies presented an opportunity to determine apparent Km values of the two enzymes with estrone and DHEA as substrates. Both enzyme preparations were tested with a range of estrone and DHEA concentrations. […] Apparent Km values were calculated by the method of Wilkinson (Biochem. J., 80, 324-332 (1961)) with a computer program written by Cleland (Nature, 198, 463-465 (1963)).

[8] = substrate: C[C@]12CC[C@@H]3c4ccc(O)cc4CC[C@H]3[C@@H]1CCC2=O; assay: as above; assay type: biochemical, human; conditions: other: substance is the substrate; EST cDNA expressed in COS-1 cells
Procedure: as §5

[9] = substrate: C[C@]12CC[C@H](O)CC1=CC[C@@H]1[C@@H]2CC[C@]2(C)C(=O)CC[C@@H]12; assay: Substrate kinetics (apparent Km) of ST activity, DHEA ST; assay type: biochemical, human; conditions: other: substance is the substrate; DHEA ST cDNA expressed in COS-1 cells
Procedure: as §5

[10] = substrate: C[C@]12CC[C@@H]3c4ccc(O)cc4CC[C@H]3[C@@H]1CCC2=O; assay: as above; assay type: biochemical, human; conditions: other: substance is the substrate; DHEA ST cDNA expressed in COS-1 cells
Procedure: as §5

human liver DHEA ST [11] = molecular target: T2, human liver DHEA ST; assay: Thermal inactivation of ST activity, DHEA ST; assay type: physicochemical; set-up: expressed in transfected cells; host or cells: COS-1 cells; high-speed supernatant; conditions: preincubated 15 minutes; DHEA as substrate; HSS from COS-1 cells
Procedure: as §4

In the case of `O=[N+]([O-])c1ccc(O)cc1` [4-nitrophenol], the “sulfation catalyzed by the protein encoded by the human liver EST cDNA” value (from here on “sulfation catalyzed”) (human liver EST [1]) is reported as 5 units/mg protein.

`O=[N+]([O-])c1cc(Cl)c(O)c(Cl)c1` [DCNP, 2,6-dichloro-4-nitrophenol] showed an IC50 (human liver EST [2]) of 28 ± 2.9 µM and an IC50 (human liver DHEA ST [3]) of 40 ± 2.3 µM.

With `C[C@]12CC[C@H](O)CC1=CC[C@@H]1[C@@H]2CC[C@]2(C)C(=O)CC[C@@H]12` [DHEA, dehydroepiandrosterone] the “sulfation catalyzed” value (human liver EST [1]) was 2.3 units/mg protein.

For `[Cl-].[Na+]` [NaCl], the “peak activation of human liver DHEA ST” value (human liver DHEA ST [4]) was 62% and the “increase of human liver EST activity” value (human liver EST [5]) was 86%.

With `NCCc1ccc(O)c(O)c1` [dopamine] the “sulfation catalyzed” value (human liver EST [1]) was “not”.

`C[C@]12CC[C@@H]3c4ccc(O)cc4CC[C@H]3[C@@H]1CCC2=O` [estrone] was tested, and the “sulfation catalyzed” value (human liver EST [1]) was 9 units/mg protein and the “ST enzyme activity as sulfate acceptor substrate, compared with other substrates” value (human EST) was “greater ST enzyme activity”.

B1: human liver EST (Homo sapiens) (protein)
chain: T1 sequence (P49888 1-294)
notes: expressed in transfected cells; host or cells: COS-1 cells, vector p91023(B); 100,000×g high-speed supernatant
With B1 the “temperature at which 50% inactivation of EST activity occurred (mean±SEM)” value (human liver EST [6]) was 38.2±0.12 °C, the Km [7] was 0.85 µM and the Km [8] was 0.17 µM.

B2: human liver DHEA ST (Homo sapiens) (protein)
chain: T2 sequence (Q06520 1-285)
notes: expressed in transfected cells; host or cells: COS-1 cells; high-speed supernatant
In the case of B2, the Km [9] is reported as 2.6 µM, the Km [10] is reported as 3.1 µM and the “temperature at which 50% inactivation of DHEA ST activity occurred (mean±SEM)” value (human liver DHEA ST [11]) is reported as 41.1±0.10 °C.
